Results on 15 compounds are retold here after ChEMBL document CHEMBL5291721, “A preclinical secondary pharmacology resource illuminates target-adverse drug reaction associations of marketed drugs” (Nat Commun, 2023).

Assay [1] addresses Voltage-dependent L-type calcium channel subunit alpha-1C (Rattus norvegicus, UniProt P22002). In kind it is functional.
Assay [2] has as its target T1, Muscarinic acetylcholine receptor M2 (Homo sapiens, UniProt P08172).
T1 sequence (P08172 whole entry): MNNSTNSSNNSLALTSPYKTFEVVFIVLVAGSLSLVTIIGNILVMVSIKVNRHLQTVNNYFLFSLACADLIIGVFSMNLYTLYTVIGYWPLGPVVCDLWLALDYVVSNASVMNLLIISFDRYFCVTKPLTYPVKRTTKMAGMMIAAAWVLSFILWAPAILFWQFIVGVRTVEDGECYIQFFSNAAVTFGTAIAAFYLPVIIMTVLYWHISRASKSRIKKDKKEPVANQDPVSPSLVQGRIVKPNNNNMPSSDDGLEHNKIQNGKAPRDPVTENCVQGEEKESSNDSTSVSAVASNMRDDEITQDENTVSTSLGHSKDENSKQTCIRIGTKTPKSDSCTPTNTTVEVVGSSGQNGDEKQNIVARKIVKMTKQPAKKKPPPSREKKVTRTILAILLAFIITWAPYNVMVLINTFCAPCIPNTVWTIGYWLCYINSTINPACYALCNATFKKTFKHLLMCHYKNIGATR
In kind it is functional, cell-based.

The target of assay [3] is 5-hydroxytryptamine receptor 2B (Homo sapiens, UniProt P41595). In kind it is functional, cell-based.
In assay [4] the target is T2, 5-hydroxytryptamine receptor 3A (Homo sapiens, UniProt P46098).
T2 sequence (P46098 whole entry): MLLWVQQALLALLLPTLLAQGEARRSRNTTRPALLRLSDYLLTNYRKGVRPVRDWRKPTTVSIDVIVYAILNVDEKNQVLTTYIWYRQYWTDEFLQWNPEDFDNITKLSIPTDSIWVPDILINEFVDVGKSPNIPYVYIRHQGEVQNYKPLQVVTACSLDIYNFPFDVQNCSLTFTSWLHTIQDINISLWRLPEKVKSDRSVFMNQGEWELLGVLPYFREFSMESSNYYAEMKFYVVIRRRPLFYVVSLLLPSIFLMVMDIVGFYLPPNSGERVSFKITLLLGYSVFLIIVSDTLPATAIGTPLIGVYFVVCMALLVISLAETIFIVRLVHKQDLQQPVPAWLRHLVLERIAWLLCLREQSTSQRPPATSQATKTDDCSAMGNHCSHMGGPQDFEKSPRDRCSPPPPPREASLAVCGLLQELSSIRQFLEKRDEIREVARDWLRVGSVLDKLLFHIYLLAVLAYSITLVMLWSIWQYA
In kind it is functional.

The target of assay [5] is T3, Neuropeptide Y receptor type 1 (Homo sapiens, UniProt P25929).
T3 sequence (P25929 whole entry): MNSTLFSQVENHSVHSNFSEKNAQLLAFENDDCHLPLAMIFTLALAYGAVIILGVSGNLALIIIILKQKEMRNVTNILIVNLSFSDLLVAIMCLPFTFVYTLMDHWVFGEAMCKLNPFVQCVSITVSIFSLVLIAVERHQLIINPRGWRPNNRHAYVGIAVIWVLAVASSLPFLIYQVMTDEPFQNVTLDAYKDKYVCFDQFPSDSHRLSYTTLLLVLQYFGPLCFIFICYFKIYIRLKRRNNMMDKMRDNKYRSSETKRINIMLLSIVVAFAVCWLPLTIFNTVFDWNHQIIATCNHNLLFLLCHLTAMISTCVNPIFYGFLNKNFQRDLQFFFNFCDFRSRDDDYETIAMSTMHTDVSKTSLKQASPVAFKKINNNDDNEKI

In assay [6] the target is Kappa-type opioid receptor (Homo sapiens, UniProt P41145).
The target in assay [7] is T4, Prostaglandin G/H synthase 1 (Rattus norvegicus, UniProt Q63921).
T4 sequence (Q63921 whole entry): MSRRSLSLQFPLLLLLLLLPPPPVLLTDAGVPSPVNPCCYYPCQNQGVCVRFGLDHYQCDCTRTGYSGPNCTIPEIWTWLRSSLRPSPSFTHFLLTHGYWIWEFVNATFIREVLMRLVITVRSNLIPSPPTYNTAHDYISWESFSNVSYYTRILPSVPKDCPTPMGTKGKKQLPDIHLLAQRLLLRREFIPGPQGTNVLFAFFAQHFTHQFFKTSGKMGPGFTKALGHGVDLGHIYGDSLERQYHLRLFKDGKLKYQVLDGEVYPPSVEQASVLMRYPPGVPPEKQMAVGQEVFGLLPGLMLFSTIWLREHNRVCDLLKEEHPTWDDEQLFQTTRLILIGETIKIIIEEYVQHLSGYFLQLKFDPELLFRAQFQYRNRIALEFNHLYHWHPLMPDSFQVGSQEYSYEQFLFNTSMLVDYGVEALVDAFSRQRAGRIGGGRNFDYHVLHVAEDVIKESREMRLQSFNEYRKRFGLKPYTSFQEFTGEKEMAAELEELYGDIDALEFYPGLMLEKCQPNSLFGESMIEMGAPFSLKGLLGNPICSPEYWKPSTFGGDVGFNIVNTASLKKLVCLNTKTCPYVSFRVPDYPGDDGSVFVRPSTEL
It counts as functional.

Assay [8] addresses Sodium-dependent noradrenaline transporter (Homo sapiens, UniProt P23975).
For assay [9], the target named is cGMP-inhibited 3',5'-cyclic phosphodiesterase 3A (Homo sapiens, UniProt Q14432). In kind it is functional.
Assay [10] concerns the target T5, 5-hydroxytryptamine receptor 1A (Homo sapiens, UniProt P08908).
T5 sequence (P08908 whole entry): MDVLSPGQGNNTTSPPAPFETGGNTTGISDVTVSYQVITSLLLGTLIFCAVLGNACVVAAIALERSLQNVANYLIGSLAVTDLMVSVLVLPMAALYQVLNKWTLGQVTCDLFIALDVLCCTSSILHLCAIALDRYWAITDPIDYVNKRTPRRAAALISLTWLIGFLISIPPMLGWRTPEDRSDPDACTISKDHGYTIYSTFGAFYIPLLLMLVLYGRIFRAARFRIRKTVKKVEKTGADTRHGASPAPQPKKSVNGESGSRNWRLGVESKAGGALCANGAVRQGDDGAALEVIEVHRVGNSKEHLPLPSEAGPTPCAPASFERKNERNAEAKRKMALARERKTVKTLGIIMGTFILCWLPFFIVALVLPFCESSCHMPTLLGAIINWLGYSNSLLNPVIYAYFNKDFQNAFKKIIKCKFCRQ
In kind it is functional, cell-based.
Also: assay procedure not described here.

Chain of Voltage-dependent L-type calcium channel subunit alpha-1C (P22002 whole entry): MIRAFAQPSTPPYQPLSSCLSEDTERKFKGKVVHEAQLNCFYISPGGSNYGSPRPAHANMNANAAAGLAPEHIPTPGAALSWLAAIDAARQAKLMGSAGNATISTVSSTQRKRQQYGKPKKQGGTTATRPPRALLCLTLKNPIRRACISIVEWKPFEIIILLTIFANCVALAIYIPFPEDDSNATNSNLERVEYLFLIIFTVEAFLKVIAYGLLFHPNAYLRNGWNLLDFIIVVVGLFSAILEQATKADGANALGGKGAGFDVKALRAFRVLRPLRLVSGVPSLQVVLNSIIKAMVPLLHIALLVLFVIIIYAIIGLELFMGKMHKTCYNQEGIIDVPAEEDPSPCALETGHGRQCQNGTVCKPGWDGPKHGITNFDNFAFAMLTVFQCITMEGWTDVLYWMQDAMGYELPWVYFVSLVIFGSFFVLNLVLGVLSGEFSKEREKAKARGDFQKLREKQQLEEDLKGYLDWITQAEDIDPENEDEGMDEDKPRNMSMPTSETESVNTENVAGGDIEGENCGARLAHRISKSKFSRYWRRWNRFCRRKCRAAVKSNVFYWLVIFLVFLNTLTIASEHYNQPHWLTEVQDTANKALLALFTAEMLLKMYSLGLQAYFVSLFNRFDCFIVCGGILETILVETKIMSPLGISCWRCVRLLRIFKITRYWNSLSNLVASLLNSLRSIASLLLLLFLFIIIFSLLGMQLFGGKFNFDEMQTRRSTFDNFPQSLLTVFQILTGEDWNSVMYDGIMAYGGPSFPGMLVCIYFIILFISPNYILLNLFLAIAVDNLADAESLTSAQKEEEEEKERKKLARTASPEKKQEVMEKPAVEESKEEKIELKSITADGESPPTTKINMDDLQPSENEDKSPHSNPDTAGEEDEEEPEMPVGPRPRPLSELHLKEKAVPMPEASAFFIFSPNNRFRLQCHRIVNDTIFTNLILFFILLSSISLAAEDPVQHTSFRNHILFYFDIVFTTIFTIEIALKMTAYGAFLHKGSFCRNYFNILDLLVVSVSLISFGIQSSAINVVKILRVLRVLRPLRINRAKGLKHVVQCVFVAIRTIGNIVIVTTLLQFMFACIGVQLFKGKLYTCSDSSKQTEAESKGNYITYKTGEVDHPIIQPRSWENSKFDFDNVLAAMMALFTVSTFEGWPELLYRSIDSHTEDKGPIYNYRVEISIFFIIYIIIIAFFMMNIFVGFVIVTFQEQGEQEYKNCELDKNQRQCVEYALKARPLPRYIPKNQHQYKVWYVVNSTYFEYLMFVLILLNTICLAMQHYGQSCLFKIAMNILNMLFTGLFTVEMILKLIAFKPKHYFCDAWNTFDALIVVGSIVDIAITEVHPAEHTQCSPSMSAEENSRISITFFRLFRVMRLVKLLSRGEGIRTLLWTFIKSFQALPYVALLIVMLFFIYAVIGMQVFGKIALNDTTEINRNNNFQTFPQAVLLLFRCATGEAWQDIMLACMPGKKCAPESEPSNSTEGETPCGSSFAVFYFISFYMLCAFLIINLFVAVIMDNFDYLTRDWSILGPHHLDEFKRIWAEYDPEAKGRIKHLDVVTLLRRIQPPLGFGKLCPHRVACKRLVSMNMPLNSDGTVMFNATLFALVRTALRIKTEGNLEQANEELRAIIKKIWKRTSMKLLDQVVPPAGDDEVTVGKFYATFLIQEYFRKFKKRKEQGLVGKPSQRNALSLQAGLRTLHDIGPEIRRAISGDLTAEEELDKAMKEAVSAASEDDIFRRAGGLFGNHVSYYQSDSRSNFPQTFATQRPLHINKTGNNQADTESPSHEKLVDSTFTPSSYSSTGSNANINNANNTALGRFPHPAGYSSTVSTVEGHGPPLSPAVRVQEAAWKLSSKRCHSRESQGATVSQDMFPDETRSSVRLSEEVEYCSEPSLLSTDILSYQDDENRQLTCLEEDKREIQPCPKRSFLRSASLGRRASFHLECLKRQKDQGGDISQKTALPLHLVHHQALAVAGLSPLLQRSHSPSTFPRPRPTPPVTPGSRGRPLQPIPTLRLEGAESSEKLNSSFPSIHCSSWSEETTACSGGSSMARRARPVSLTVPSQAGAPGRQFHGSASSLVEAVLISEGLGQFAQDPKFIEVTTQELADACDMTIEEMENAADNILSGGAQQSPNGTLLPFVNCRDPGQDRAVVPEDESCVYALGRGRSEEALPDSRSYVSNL
Chain of Kappa-type opioid receptor (P41145 whole entry): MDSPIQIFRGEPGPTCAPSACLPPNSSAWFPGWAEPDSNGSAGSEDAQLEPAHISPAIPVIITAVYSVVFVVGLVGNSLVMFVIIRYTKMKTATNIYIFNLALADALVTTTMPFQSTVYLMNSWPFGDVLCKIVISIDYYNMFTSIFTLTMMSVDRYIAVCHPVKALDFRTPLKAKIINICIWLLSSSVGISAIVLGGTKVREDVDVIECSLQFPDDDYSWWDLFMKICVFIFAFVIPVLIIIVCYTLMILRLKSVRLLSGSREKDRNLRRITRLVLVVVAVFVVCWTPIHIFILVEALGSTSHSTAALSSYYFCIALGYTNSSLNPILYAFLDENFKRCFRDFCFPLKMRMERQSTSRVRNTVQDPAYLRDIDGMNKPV
Chain of Sodium-dependent noradrenaline transporter (P23975 whole entry): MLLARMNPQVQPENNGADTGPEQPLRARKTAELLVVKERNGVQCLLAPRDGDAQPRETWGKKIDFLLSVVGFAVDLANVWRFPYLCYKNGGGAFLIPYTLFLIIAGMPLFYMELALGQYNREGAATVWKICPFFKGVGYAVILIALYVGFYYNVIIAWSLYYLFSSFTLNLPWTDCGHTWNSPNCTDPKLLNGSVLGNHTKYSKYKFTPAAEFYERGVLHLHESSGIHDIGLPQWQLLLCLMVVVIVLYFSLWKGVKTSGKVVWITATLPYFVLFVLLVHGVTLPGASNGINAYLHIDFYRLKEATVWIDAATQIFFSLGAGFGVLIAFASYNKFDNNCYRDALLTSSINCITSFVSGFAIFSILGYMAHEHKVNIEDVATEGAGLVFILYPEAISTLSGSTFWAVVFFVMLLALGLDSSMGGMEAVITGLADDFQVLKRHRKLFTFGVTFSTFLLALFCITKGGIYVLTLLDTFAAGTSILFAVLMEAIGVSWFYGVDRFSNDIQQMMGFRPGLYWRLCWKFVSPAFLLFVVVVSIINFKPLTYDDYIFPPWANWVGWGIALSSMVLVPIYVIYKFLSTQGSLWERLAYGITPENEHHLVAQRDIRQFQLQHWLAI
Chain of 5-hydroxytryptamine receptor 2B (P41595 whole entry): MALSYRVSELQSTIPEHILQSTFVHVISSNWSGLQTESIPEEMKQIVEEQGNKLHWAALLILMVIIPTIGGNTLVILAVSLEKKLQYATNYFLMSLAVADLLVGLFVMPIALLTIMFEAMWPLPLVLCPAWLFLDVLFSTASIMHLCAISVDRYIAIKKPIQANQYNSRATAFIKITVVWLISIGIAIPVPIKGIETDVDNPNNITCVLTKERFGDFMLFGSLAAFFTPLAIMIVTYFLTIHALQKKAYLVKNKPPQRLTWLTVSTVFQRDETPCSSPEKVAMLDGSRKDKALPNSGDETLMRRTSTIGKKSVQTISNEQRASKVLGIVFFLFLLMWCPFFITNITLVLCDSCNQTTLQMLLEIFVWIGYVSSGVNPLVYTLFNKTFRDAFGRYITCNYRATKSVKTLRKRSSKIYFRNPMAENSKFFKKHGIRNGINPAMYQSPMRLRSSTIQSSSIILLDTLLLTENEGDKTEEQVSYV
Chain of cGMP-inhibited 3',5'-cyclic phosphodiesterase 3A (Q14432 whole entry): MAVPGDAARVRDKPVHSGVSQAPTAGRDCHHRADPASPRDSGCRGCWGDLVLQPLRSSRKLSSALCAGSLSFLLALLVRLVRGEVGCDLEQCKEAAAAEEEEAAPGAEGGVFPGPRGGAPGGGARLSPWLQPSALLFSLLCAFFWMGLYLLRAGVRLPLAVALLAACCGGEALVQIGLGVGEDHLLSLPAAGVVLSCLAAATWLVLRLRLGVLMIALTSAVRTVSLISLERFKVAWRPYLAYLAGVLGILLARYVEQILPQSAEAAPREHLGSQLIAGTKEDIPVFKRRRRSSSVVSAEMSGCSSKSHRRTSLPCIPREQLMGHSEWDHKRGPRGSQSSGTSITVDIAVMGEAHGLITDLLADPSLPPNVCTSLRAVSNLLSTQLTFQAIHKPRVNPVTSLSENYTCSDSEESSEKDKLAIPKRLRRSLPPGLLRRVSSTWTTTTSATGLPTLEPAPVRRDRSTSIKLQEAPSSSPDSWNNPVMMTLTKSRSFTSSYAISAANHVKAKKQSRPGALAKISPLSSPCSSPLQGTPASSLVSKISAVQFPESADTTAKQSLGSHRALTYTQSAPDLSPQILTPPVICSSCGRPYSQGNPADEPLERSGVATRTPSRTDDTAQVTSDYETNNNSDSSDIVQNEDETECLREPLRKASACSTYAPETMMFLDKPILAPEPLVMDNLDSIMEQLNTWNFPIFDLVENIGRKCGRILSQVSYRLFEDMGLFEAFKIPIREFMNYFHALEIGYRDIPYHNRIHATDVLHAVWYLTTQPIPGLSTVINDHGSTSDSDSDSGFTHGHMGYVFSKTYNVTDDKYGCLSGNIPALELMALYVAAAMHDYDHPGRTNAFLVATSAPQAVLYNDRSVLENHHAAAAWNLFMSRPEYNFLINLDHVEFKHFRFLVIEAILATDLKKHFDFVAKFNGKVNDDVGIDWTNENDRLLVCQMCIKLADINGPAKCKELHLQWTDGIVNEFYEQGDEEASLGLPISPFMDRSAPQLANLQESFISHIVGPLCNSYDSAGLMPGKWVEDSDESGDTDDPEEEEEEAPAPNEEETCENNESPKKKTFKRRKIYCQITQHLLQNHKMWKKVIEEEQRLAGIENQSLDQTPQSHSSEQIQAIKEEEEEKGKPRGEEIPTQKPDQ

Usually AC50 stands for the midpoint of the concentration-response curve, whichever way the signal moves. In the case of `CCN(CC)C(=O)C1CN2CCc3cc(OC)c(OC)cc3C2CC1OC(C)=O` (centres undefined) [BENZQUINAMIDE], the AC50 in assay [1] is over 10 µM; in assay [2] it was over 30 µM; in assay [3] it was 0.32 µM; in assay [4] it was over 30 µM; in assay [5], over 30 µM; in [6], over 30 µM. In addition, the AC50 was 2.72 µM in [7], over 30 µM in assay [8] and over 30 µM in assay [9].
Take `CS(=O)(=O)OCCCCOS(C)(=O)=O` [BUSULFAN]: the AC50 in assay [2], in assay [10], in [3], in assay [4], in assay [5] and in assay [6] was over 30 µM each time. Besides, the AC50 in assay [7], in assay [8] and in [9] was over 30 µM throughout.
As for `CCCCC1(CC)C(=O)NC(=O)NC1=O` [BUTETHAL], the AC50 in assay [2], in assay [10], in assay [3], in [4], in assay [5] and in [6] was over 30 µM each time. The AC50 in assay [7], in assay [8] and in assay [9] was over 30 µM each time.
In the case of `CCC(C)(Oc1ccc(C2(c3ccc(OC(C)(CC)C(=O)O)cc3)CCCCC2)cc1)C(=O)O` (centres undefined) [CLINOFIBRATE], the AC50 in assay [1], in assay [2], in assay [3], in assay [4], in [5] and in assay [6] was over 30 µM throughout. The AC50 in [7], in assay [8] and in [9] was over 30 µM each time.
With `CCCCC[C@H](O)/C=C/[C@H]1[C@H](O)CC(=O)[C@@H]1C/C=C\CCCC(=O)O` [DINOPROSTONE], the AC50 was over 30 µM in assay [1]; over 30 µM in [2]; over 30 µM in [3]; over 30 µM in assay [4]; over 30 µM in assay [5]; 22 µM in [6]. Moreover, the results for the AC50 in [7], in assay [8] and in assay [9] were 15 µM, over 30 µM and over 30 µM, respectively.
For the compound `CC(C)c1cc2c(cc1S(=O)(=O)O)[C@@]1(C)CCC[C@@](C)(C(=O)O)[C@@H]1CC2` [ECABET], the AC50 in [1] is over 30 µM; in assay [2], over 30 µM; in [3], over 30 µM; in assay [4] it was over 30 µM; in assay [5], over 30 µM; in assay [6], 19 µM. Moreover, the AC50 in [7], in assay [8] and in [9] was over 30 µM in each case.
With `CCCN(CC)C(CC)C(=O)Nc1c(C)cccc1C` (centres undefined) [ETIDOCAINE], the AC50 in [1], in assay [2], in assay [3], in [4], in [5] and in assay [6] was over 30 µM throughout. The AC50 in [7], in [8] and in assay [9] was over 30 µM throughout.
With `CC1(C)C(/C=C/C=C/C=C/C=C2\N(CCCCS(=O)(=O)O)c3ccc4ccccc4c3C2(C)C)=[N+](CCCCS(=O)(=O)[O-])c2ccc3ccccc3c21` [INDOCYANINE GREEN ACID FORM], the AC50 in [10] is over 30 µM; in assay [4], 13 µM; in assay [5], over 30 µM; in assay [6], 13 µM; in [7], 21 µM; in assay [8], 5.2 µM. In [9], this compound showed an AC50 of 29 µM.
Consider `CC(C)OC(=O)C(C(=O)OC(C)C)=C1SC=CS1` [MALOTILATE], for which the concentration at half-maximal activity (AC50) in assay [1], in [2], in assay [3], in assay [4], in [5] and in [6] was over 30 µM throughout. The AC50 in assay [7], in [8] and in assay [9] was over 30 µM each time.
Consider `CN(c1nccc(=O)[nH]1)C1CCN(c2nc3ccccc3n2Cc2ccc(F)cc2)CC1` [MIZOLASTINE], for which the AC50 was over 30 µM in [1]; over 30 µM in [2]; 17 µM in assay [3]; over 30 µM in assay [4]; over 30 µM in [5]; over 30 µM in assay [6]. The AC50 was over 30 µM in assay [7], over 30 µM in assay [8] and 6.1 µM in assay [9].
`CCn1cc(C(=O)O)c(=O)c2cc(F)c(N3CCN(C)CC3)cc21` [PEFLOXACIN]: the AC50 in assay [2], in assay [10], in assay [3], in assay [4], in [5] and in assay [7] was over 30 µM throughout. Moreover, the AC50 in [8] and in assay [9] was over 30 µM throughout.
Take `C[n+]1ccccc1/C=N/O` [PRALIDOXIME]: the AC50 in assay [10], in assay [3], in assay [4], in [6] and in assay [9] was over 30 µM each time.
`CCCOC(C(=O)OC1CCN(C)CC1)(c1ccccc1)c1ccccc1` [PROPIVERINE]: the AC50 is over 30 µM in assay [1]; 3.6 µM in assay [2]; 16 µM in assay [3]; over 30 µM in assay [4]; over 30 µM in assay [5]; 11 µM in assay [6]. Also, the AC50 in assay [7], in assay [8] and in assay [9] was over 30 µM throughout.
With `C=CC(N)CCC(=O)O` (centres undefined) [VIGABATRIN], the AC50 in [1] was over 10 µM; in [2], over 10 µM; in assay [3], over 10 µM; in [4], over 30 µM; in assay [5], over 10 µM; in assay [6], over 10 µM. Further, the AC50 in assay [7] was over 10 µM; in [8] it was 21.7 µM; in [9], over 30 µM.
As for COLISTIN, the AC50 in [10], in [3], in assay [4], in [6] and in assay [9] was over 30 µM in each case.
